Measured values reported in US20050288355A1, “Combination therapy wherein a serotonin reuptake inhibitor is used” (priority 2002, published 2005).

What was measured:
[1] = system: 5-HT levels in rat ventral hippocampus; assay: Microdialysis of brain serotonin levels, ventral hippocampus; type: in vivo
Experimental: (§1) Male albino rats of a Wistar-derived strain (285-320 g; Harlan, Zeist, The Netherlands) were used for the experiments. Upon surgery, rats were housed individually in plastic cages (35×35×40 cm), and had free access to food and water. Animals were kept on a 12 h light schedule (light on 7:00 a.m.). The experiments are concordant with the declarations of Helsinki and were approved by the animal care committee of the faculty of mathematics and natural science of the University of Groningen.
Microdialysis of brain serotonin levels was performed using home made I-shaped probes, made of polyacrylonitrile/sodium methyl sulfonate copolymer dialysis fiber (i.d. 220 μn, o.d. […], AN 69, Hospal, Italy). Preceding surgery rats were anaesthetised using isoflurane (O2/N2O; 300/300 ml/min). Lidocaine-HCl, 10% (m/v) was used for local anaesthesia. Rats were placed in a stereotaxic frame (Kopf, USA), and probes were inserted into Ventral Hippcampus (V. Hippo, L+4.8 mm, IA: +3.7 mm, V: −8.0 mm) and median prefrontal cortex (PFC, L −0.9 mm; AP: +3.5 mm relative to bregma; V: −6.0 mm (Paxinos and Watson, 1982). After insertion, probes were secured with dental cement.
Rats were allowed to recover for at least 24 h. Probes were perfused with artificial cerebrospinal fluid containing 147 mM NaCl, 3.0 mM KCl, 1.2 mM CaCl2, and 1.2 mM MgCl2, at a flow-rate of 1.5 μl/min (Harvard apparatus, South Natick, Ma., USA). 15 minute microdialysis samples were collected in HPLC vials containing 7.5 μl 0.02 M acetic acid for serotonin analysis.
(§2) Twenty-μl microdialysate samples were injected via an autoinjector (CMA/200 refrigerated microsampler, CMA, Sweden) onto a 100×2.0 mm C18 Hypersil 3 μm column (Bester, Amstelveen, the Netherlands) and separated with a mobile phase consisting of 5 g/L di-ammoniumsulfate, 500 mg/L EDTA, 50 mg/L heptane sulphonic acid, 4% methanol v/v, and 30 μl/L of triethylamine, pH 4.65 at a flow of 0.4 ml/min (Shimadzu LC-10 AD). 5-HT was detected amperometrically at a glassy carbon electrode at 500 mV vs Ag/AgCl (Antec Leyden, Leiden, The Netherlands). The detection limit was 0.5 fmol 5-HT per 20 μl sample (signal to noise ratio 3).
Four consecutive microdialysis samples with less then 20% variation were taken as control and set at 100%. Data are presented as percentages of control level (mean±S.E.M.) in time. Statistical analysis was performed using Sigmastat for Windows (SPSS, Jandel Corporation). Treatments were compared versus controls using two way analysis of variance (ANOVA) for repeated measurements, followed by Student Newman Keuls test. Level of significance level was set at p<0.05.

[2] = system: 5-HT in the raphe nuclei / forebrain; details: cited from earlier work
[3] = system: 5-HT levels in rat prefrontal cortex; assay: Microdialysis of brain serotonin levels, prefrontal cortex; type: in vivo; details: PFC; 2 mg/kg s.c. co-administered with citalopram 10 μmol/kg s.c.; P=0.048
Experimental: as §1
Microdialysis of brain serotonin levels was performed using home made I-shaped probes, made of polyacrylonitrile/sodium methyl sulfonate copolymer dialysis fiber (i.d. 220 μn, o.d. 0.31 μm, AN 69, Hospal, Italy). Preceding surgery rats were anaesthetised using isoflurane (O2/N2O; 300/300 ml/min). Lidocaine-HCl, 10% (m/v) was used for local anaesthesia. […]
as §2, with “The detection limit was 0.5 fmol 5-HT per 20 μl sample (signal to noise ratio 3).” left out

## CN1CCc2cc3c(cc2[C@H]1[C@@H]1OC(=O)c2c1ccc1c2OCO1)OCO3 [bicuculline, (+)-Bicuculline]
[1]; local administration of 50 μM in ventral hippocampus, significant from t=45 to 90 min
  increase of serotonin levels: about 150%

## NCC(CC(=O)O)c1ccc(Cl)cc1 (centres unmarked) [baclofen]
[2]; forebrain
  5-HT in the forebrain: reduction
[2]; raphe
  5-HT in the raphe: decrease

## NCCCP(=O)(O)CC1CCCCC1 [CGP 46381]
[1]; 0.5 mg/kg co-administered with citalopram 10 μmol/kg, treatment p=0.04
  response on 5-HT levels with citalopram: augmented response
[1]; 2 mg/kg co-administered with citalopram 10 μmol/kg, treatment p=0.10, treatment vs. time 0.001
  response on 5-HT levels with citalopram: augmented response
[1]; 10 mg/kg s.c., without citalopram
  effect on 5-HT levels, given alone: did not show any effect

## NCC(CP(=O)(O)O)c1ccc(Cl)cc1 (centres unmarked) [Phaclofen]
[3]
  5-HT levels compared to citalopram treatment alone: enhanced levels of 5-HT
[1]; 2 mg/kg s.c. co-administered with citalopram 10 μmol/kg s.c., P=0.021, t=75 to t=135
  5-HT levels compared to citalopram treatment alone: enhanced levels of 5-HT
[1]; administered either centrally into the hippocampus or systemically, with citalopram
  effects of citalopram on extracellular 5-HT levels: significantly increase
[1]; local infusion (50 μM) in ventral hippocampus, P=0.26
  effect on basal levels of 5-HT: did not have any effect
[1]; local phaclofen 50 μM, citalopram 10 μmol/kg s.c., P=0.0068, significant from t=75 to 150 min
  5-HT levels after systemic citalopram during local administration: augmented levels of 5-HT
[2]; raphe or forebrain
  effect on 5-HT levels when administered by itself: devoid of effect

## NCc1cc(=O)[nH]o1 [muscimol]
[2]; raphe nuclei
  5-HT cell activity & 5-HT release: reduced

## NCC(O)(CS(=O)(=O)O)c1ccc(Cl)cc1 (centres unmarked) [2-hydroxysaclofen]
[1]; 2 mg/kg s.c. simultaneous with citalopram 10 μmol/kg s.c., P=0.046
  effects on 5-HT levels with citalopram: augmented effects on 5-HT levels
